What was measured:
[1] = test system: AAD-12 (v1) transformed T1 corn plants; experiment: Brace root injury of T1 corn after 2,4-D DMA; format: in vivo, Zea mays; details: 2240 g ae/ha 2,4-D DMA, V3-V4 stage, 14DAT
Source text: T1 AAD-12 (v1) seed were planted into 3-inch pots containing Metro Mix media and at 2 leaf stage were sprayed with 70 g ae/ha imazethapyr to eliminate nulls. Surviving plants were transplanted to 1-gallon pots containing Metro Mix media and placed in the same growth conditions as before. At V3-V4 stage the plants were sprayed in the track sprayer set to 187 L/ha at either 560 or 2240 g ac/ha 2,4-D DMA. Plants were graded at 3 and 14 DAT and compared to 5XH751×Hi II control plants. A grading scale of 0-10 (no injury to extreme auxin injury) was developed to distinguish brace root injury. Brace Root grades were taken on 14DAT to show 2,4-D tolerance. 2,4-D causes brace root malformation, and is a consistent indicator of auxinic herbicide injury in corn. […] Event “pDAB4101(0)001.001” was apparently unstable; however, the other two events were robustly tolerant to 2,4-D and 2,4-D+imazethapyr or 2,-4D+glyphosate (see Table 16).

[2] = test system: R-dichlorprop habituated PHL (Petite Havana) tobacco cells; experiment: 2,4-D dose response of tobacco cell suspension (PHL); format: cell-based
Procedure: A dose response study was conducted with both the R-dichlorprop habituated PHL cells and the R-dichlorprop habituated BY2 cells where R-dichlorprop was substituted directly for 2,4-D in culture media. Though the focus was on PHL, a dose response was also done with BY2 in case of possible future studies, as well as to help predict the dose response for PHL. For the dichlorprop habituated PHL dose response, the levels of 2,4-D used (on LSBY2C medium with R-dichlorprop) were 0 (the control), 1, 2, 3, 5, 8, 10, 12, 15, 18, 20, 40, 60, 80, […] mg/L 2,4-D. There were four replications per concentration. For the R-dichlorprop habituated BY2 dose response, the levels of 2,4-D used (on LSBY2C medium) were 0 (the control), 1, 2, 3, 5, 8, 10, 20, 30, 40, mg/L 2,4-D.

[3] = test system: wildtype Maverick soybeans; experiment: 2,4-D leaf paint (leaf flip assay) on wildtype soybean; format: in vivo, Glycine max; design: key to Leaf flip assay (18 HAT) Node N-2: 1 = Flip; 0 = No Flip
Source text: (§1) Plants that are transferred to the greenhouse can be assayed for the presence of an active PAT gene further with a non-destructive manner by painting a section of leaf of the T0 primary transformant, or progeny thereof, with a glufosinate solution [0.05-2% v/v Liberty Herbicide, preferably 0.25-1.0% (v/v),=500-2000 ppm glufosinate, Bayer Crop Science]. Depending on the concentration used, assessment for glufosinate injury can be made 1-7 days after treatment. Plants can also be tested for 2,4-D tolerance in a non-destructive manner by selective application of a 2,4-D solution in water (0.25-1% v/v commercial 2,4-D dimethylamine salt formulation, preferably 0.5% v/v=2280 ppm 2,4-D ae) to the terminal leaflet of the newly expanding trifoliolate one or two, preferably two, nodes below the youngest emerging trifolioate. […] Glyphosate resistance (in plants transformed with constructs that contain EPSPS) or another glyphosate tolerance gene can be assessed in the T1 generation by postemergence applications of glyphosate with a dose range from 280-2240 g ae/ha glyphosate. […] Individual T0 plants were assessed for the presence of the coding region of the gene of interest (AAD-12 (v1) or PAT v6) and copy number. […]
(§2) A subset of the initial transformants were assessed in the T0 generation according to the methods above. […]

[4] = test system: PAT-only transformed soybean plants; experiment: 2,4-D leaf paint (leaf flip assay) on PAT-only transformed soybean; format: in vivo, Glycine max; design: key: 1 = Flip; 0 = No Flip; details: event D-2-3 (pDAB4499, PAT, CsVMV)
Source text: as §1, §2

T1 AAD-1 (v3) tobacco = experiment: Elevated 2,4-D DMA rates in greenhouse tobacco, AAD-1; format: in vivo, Nicotiana tabacum
Source text: T1 AAD-12 (v1) plants from an event segregating 3R:1S when selected with 560 g ai/ha Liberty using the same protocol as previously described. T1 AAD-1 (v3) seed was also planted for transformed tobacco controls (see PCT/US2005/014737). Untransformed KY160 was served as the sensitive control. Plants were sprayed using a track sprayer set to 187 L/ha at 140, 560, 2240, 8960, and 35840 g ae/ha 2,4-D DMA and rated 3 and 14 DAT.

[5] = test system: AAD-12 (v1) T0 Maverick soybean plants; experiment: 2,4-D leaf paint (leaf flip assay) on T0 soybean; format: in vivo, Glycine max; design: key to Leaf flip assay (18 HAT) Node N-1 / Leaf flip assay (18 HAT) Node N-2: 1 = Flip; 0 = No Flip; details: for Leaf flip assay (18 HAT) Node N-1 / Leaf flip assay (18 HAT) Node N-2: 2,4-D leaf paint
Source text: Plants that are transferred to the greenhouse can be assayed for the presence of an active PAT gene further with a non-destructive manner by painting a section of leaf of the T0 primary transformant, or progeny thereof, with a glufosinate solution [0.05-2% v/v Liberty Herbicide, preferably 0.25-1.0% (v/v),=500-2000 ppm glufosinate, Bayer Crop Science]. Depending on the concentration used, assessment for glufosinate injury can be made 1-7 days after treatment. Plants can also be tested for 2,4-D tolerance in a non-destructive manner by selective application of a 2,4-D solution in water (0.25-1% v/v commercial 2,4-D dimethylamine salt formulation, preferably 0.5% v/v=2280 ppm 2,4-D ae) to the terminal leaflet of the newly expanding trifoliolate one or two, preferably two, nodes below the youngest emerging trifolioate. This assay allows assessment of 2,4-D sensitive plants 6 hours to several days after application by assessment of leaf flipping or rotation >90 degrees from the plane of the adjacent leaflets. Plants tolerant to 2,4-D will not respond to 2,4-D. To plants will be allowed to self fertilize in the greenhouse to give rise to T1 seed. T1 plants (and to the extent enough T0 plant clones are produced) will be sprayed with a range of herbicide doses to determine the level of herbicide protection afforded by AAD-12 (v1) and PAT genes in transgenic soybean. Rates of 2,4-D used on T0 plants will typically comprise one or two selective rates in the range of 100-1120 g ae/ha using a track sprayer as previously described. T1 plants will be treated with a wider herbicide dose ranging from 50-3200 g ae/ha 2,4-D. Likewise, T0 and T1 plants can be screened for glufosinate resistance by postemergence treatment with 200-800 and 50-3200 g ae/ha glufosinate, respectively. Glyphosate resistance (in plants transformed with constructs that contain EPSPS) or another glyphosate tolerance gene can be assessed in the T1 generation by postemergence applications of glyphosate with a dose range from 280-2240 g ae/ha glyphosate. Analysis of protein expression will occur as described in below. Individual T0 plants were assessed for the presence of the coding region of the gene of interest (AAD-12 (v1) or PAT v6) and copy number. Determination of the inheritance of AAD-12 (v1) will be made using T1 and T2 progeny segregation with respect to herbicide tolerance as described in previous examples.
A subset of the initial transformants were assessed in the T0 generation according to the methods above. […] PAT-only transformed plants responded the same at wildtype plants to leaf paint applications of 2,4-D

[6] = LSBY2C medium with R-dichlorprop
[7] = 2,4-D solution applied to terminal leaflet

## CNC.O=C(O)COc1ccc(Cl)cc1Cl [2,4-D DMA]
[1]; event AAD-12 (v1) pDAB4101(0)005.001
  Average Brace Root Injury (0-10 Scale): 0
[1]; event AAD-12 (v1) pDAB41011(0)003.003
  Average Brace Root Injury (0-10 Scale): 1
[1]; event AAD-12 (v1)pDAB4101(0)001.001
  Average Brace Root Injury (0-10 Scale): 8

## O=C(O)COc1ccc(Cl)cc1Cl [2,4-D, 2,4-dichlorophenoxyacetic acid]
[2]; 10-mg/L 2,4-D
  growth of PHL suspension: slight growth
[2]; [6]
  2,4-D concentrations with growth comparable to control treatments: 1 to 8 mg/L
  lethal concentrations of 2,4-D: above 10 mg/L
[3]; 2,4-D leaf paint, Maverick WT plants (WT-10, WT-2)
  Leaf flip assay (18 HAT) Node N-2: 1
[3]; [7]
  response to 2,4-D leaf painting: did
[4]
  Leaf flip assay (18 HAT) Node N-2: 1
T1 AAD-1 (v3) tobacco; 2240 g ae/ha 2,4-D
  Average % injury 14 DAT: 4%
T1 AAD-1 (v3) tobacco; 8960 g ae/ha 2,4-D
  Average % injury 14 DAT: 9%
T1 AAD-1 (v3) tobacco; 35840 g ae/ha 2,4-D
  Average % injury 14 DAT: 32%
[5]; event D-1-14 (pDAB4464, AAD-12, CsVMV)
  Leaf flip assay (18 HAT) Node N-1: 0
[5]; event D-2-9 (pDAB4464, AAD-12, CsVMV)
  Leaf flip assay (18 HAT) Node N-2: 0
[5]; event D-2-14 (pDAB4464, AAD-12, CsVMV)
  Leaf flip assay (18 HAT) Node N-2: 0
[5]; event D-3-5 (pDAB4468, AAD-12, AtUbi10)
  Leaf flip assay (18 HAT) Node N-2: 0
[5]; event D-3-6 (pDAB4468, AAD-12, AtUbi10)
  Leaf flip assay (18 HAT) Node N-1: 0
[5]; event D-3-7 (pDAB4468, AAD-12, AtUbi10)
  Leaf flip assay (18 HAT) Node N-2: 0
[5]; event D-3-9 (pDAB4468, AAD-12, AtUbi10)
  Leaf flip assay (18 HAT) Node N-2: 0
[5]; event D-4-11B (pDAB4468, AAD-12, AtUbi10)
  Leaf flip assay (18 HAT) Node N-2: 0
[5]; event D-4-16 (pDAB4468, AAD-12, AtUbi10)
  Leaf flip assay (18 HAT) Node N-2: 0
[5]; event D-4-17 (pDAB4468, AAD-12, AtUbi10)
  Leaf flip assay (18 HAT) Node N-2: 0
[5]; event D-5-2 (pDAB4472, AAD-12, AtUbi3)
  Leaf flip assay (18 HAT) Node N-1: 0
[5]; event D-9-1 (pDAB4480, AAD-12, AtAct2)
  Leaf flip assay (18 HAT) Node N-2: 0
[5]; [7]
  response to 2,4-D leaf painting: did not respond
